Results: US9547000B2, “Chromogenic absorbent material for animal litter and related chromogenic solution” (7905122 CANADA INC., priority 2012, dated 2017)
≈ marks a conversion by molar mass, not a printed value.

Test: Solubility of TMB in different solvents
Assay type: physicochemical
Text: The following Table 1 presents results regarding the solubility of TMB in different solvents.

SMILES: Cc1cc(-c2cc(C)c(N)c(C)c2)cc(C)c1N [TMB, 3,3′,5,5′-tetramethylbenzidine]
- solubility (organic solvent or mixture, solvent Dimethylsulfonamide): 1.6 mM (≈ 385 µg/mL)
- solubility (organic solvent or mixture, solvent Ethyl acetate): 10 mM (≈ 2400 µg/mL)
- solubility (organic solvent or mixture, solvent Methanol): 5.2 mM (≈ 1250 µg/mL)
- solubility (water, solvent Water): 0.1 mM (≈ 24 µg/mL)
